We go through 20 compounds from ChEMBL document CHEMBL3407485, “Design, synthesis and pharmacological evaluation of novel N-(2-(1, 1-dimethyl-5, 7-dioxo-4, 6-diazaspiro[2.4]heptan-6-yl)ethyl) sulfonamide derivatives as potential anticonvulsant agents” (Eur J Med Chem, 2015).

Data set [1] relates to Mus musculus. In words: Anticonvulsant activity in Kunming mouse assessed as protection against subcutaneous pentylenetetrazole-induced seizures at 300 mg/kg, ip after 4 hrs. Also on record: dose 300 mg/kg. The data set is classed as functional, organism-based.
Data set [2] has as its system Mus musculus. The data set can be described thus: Anticonvulsant activity in Kunming mouse assessed as protection against subcutaneous pentylenetetrazole-induced seizures at 300 mg/kg, ip after 0.5 hrs. On the set-up: dose 300 mg/kg. The class given is functional, organism-based.
Data set [3] concerns Mus musculus. The data set can be described thus: Anticonvulsant activity in Kunming mouse assessed as protection against maximal electroshock-induced seizures measured as abolition of hind limb tonic extension spasm at 300 mg/kg, ip after 0.5 hrs. The data set is classed as functional, organism-based. Also on record: dose 300 mg/kg. Particulars: Hindlimb. For orientation: Protection in the maximal electroshock model is a classic sign of anticonvulsant action.

Data set [4] relates to Mus musculus. In words: Neurotoxicity in Kunming mouse assessed as motor impairment at 300 mg/kg, ip after 4 hrs by standardized rotarod test. The class given is toxicity, organism-based. Also on record: dose 300 mg/kg, route intraperitoneal. Particulars: in vivo. For orientation: The rotarod test checks motor coordination on a turning rod.
Data set [5] relates to Mus musculus. In words: Neurotoxicity in Kunming mouse assessed as motor impairment at 300 mg/kg, ip after 0.5 hrs by standardized rotarod test. The class given is toxicity, organism-based. The following applies: in vivo. Also on record: dose 300 mg/kg, route intraperitoneal.
The test system of data set [6] is Mus musculus. In words: Anticonvulsant activity in Kunming mouse assessed as protection against maximal electroshock-induced seizures measured as abolition of hind limb tonic extension spasm at 300 mg/kg, ip after 4 hrs. The data set is classed as functional, organism-based. Particulars: Hindlimb. Also on record: dose 300 mg/kg.
The subject of data set [7] is Mus musculus. In words: Anticonvulsant activity in Kunming mouse assessed as protection against maximal electroshock-induced seizures measured as abolition of hind limb tonic extension spasm at 100 mg/kg, ip after 0.5 hrs. Also on record: dose 100 mg/kg. The following applies: Hindlimb. The data set is classed as functional, organism-based.
Data set [8] concerns Mus musculus. In words: Anticonvulsant activity in Kunming mouse assessed as protection against maximal electroshock-induced seizures measured as abolition of hind limb tonic extension spasm at 100 mg/kg, ip after 4 hrs. The class given is functional, organism-based. Also on record: dose 100 mg/kg. The following applies: Hindlimb.
The test system of data set [9] is Mus musculus. The data set can be described thus: Neurotoxicity in Kunming mouse assessed as motor impairment at 100 mg/kg, ip after 0.5 hrs by standardized rotarod test. The following applies: in vivo. The data set is classed as toxicity, organism-based. On the set-up: dose 100 mg/kg, route intraperitoneal.
A short description of data set [10]: Neurotoxicity in ip dosed Kunming mouse assessed as motor impairment after 4 hrs by standardized rotarod test. The class given is toxicity, organism-based. Particulars: in vivo.
Data set [11] has as its system Mus musculus. The data set can be described thus: Anticonvulsant activity in Kunming mouse assessed as protection against maximal electroshock-induced seizures measured as abolition of hind limb tonic extension spasm at 30 mg/kg, ip after 0.5 hrs. Also on record: dose 30 mg/kg. The class given is functional, organism-based. The following applies: Hindlimb.
For data set [12], the system named is Mus musculus. In words: Anticonvulsant activity in ip dosed Kunming mouse assessed as protection against maximal electroshock-induced seizures measured as abolition of hind limb tonic extension spasm after 0.5 hrs. The data set is classed as functional. The following applies: Hindlimb.
In data set [13] the test system is Mus musculus. In words: Protective index, ratio of TD50 for neurotoxicity in ip dosed Kunming mouse to ED50 for protection against maximal electroshock-induced seizure in ip dosed Kunming mouse. The data set is classed as functional.
In data set [14] the test system is Mus musculus. In words: Anticonvulsant activity in Kunming mouse assessed as protection against maximal electroshock-induced seizures measured as abolition of hind limb tonic extension spasm at 30 mg/kg, ip after 4 hrs. The data set is classed as functional, organism-based. On the set-up: dose 30 mg/kg. The following applies: Hindlimb.
Data set [15] deals with Mus musculus. The data set can be described thus: Anticonvulsant activity in Kunming mouse assessed as protection against subcutaneous pentylenetetrazole-induced seizures at 100 mg/kg, ip after 0.5 hrs. The data set is classed as functional, organism-based. Also on record: dose 100 mg/kg.
Data set [16] has as its system Mus musculus. In words: Neurotoxicity in Kunming mouse assessed as motor impairment at 100 mg/kg, ip after 4 hrs by standardized rotarod test. The following applies: in vivo. The class given is toxicity, organism-based. On the set-up: dose 100 mg/kg, route intraperitoneal.

Active and inactive are the calls of the source. No cut-off for these calls is given here.

Turning to `CC1(C)CC12NC(=O)N(CCNS(C)(=O)=O)C2=O` (racemic), the result with Mus musculus [1], in the data set on Mus musculus [2], with Mus musculus [3] and in the data set on Mus musculus [6] was inactive. Also, the Activity result with Mus musculus [4] and in the data set with Mus musculus [5] was “Non-toxic” throughout.

For `CCCCS(=O)(=O)NCCN1C(=O)NC2(CC2(C)C)C1=O` (racemic), the result with Mus musculus [1] and in the data set on Mus musculus [2] was inactive. In addition, the outcome with Mus musculus [7] and with Mus musculus [8] was Active. In addition, the Activity result in the data set with Mus musculus [4] and with Mus musculus [5] was “Non-toxic” each time.

In the case of `CN(C)S(=O)(=O)NCCN1C(=O)NC2(CC2(C)C)C1=O` (racemic), the result in the data set on Mus musculus [1], in the data set with Mus musculus [2] and in the data set with Mus musculus [3] was inactive. The Activity result with Mus musculus [4] and with Mus musculus [5] was “Non-toxic” each time. In the data set on Mus musculus [6], the result was Active.

As to `CC1(C)CC12NC(=O)N(CCNS(=O)(=O)c1cccs1)C2=O` (racemic), the outcome in the data set on Mus musculus [1] and with Mus musculus [2] was inactive. In addition, the result in the data set on Mus musculus [7] and in the data set on Mus musculus [6] was Active. The Activity entry with Mus musculus [9] and in the data set with Mus musculus [4] was “Toxic” each time.

On to `Cc1ccc(S(=O)(=O)NCCN2C(=O)NC3(CC3(C)C)C2=O)cc1` (racemic), for which, in data set [10], the TD50 at 4 h was determined as 488 mg/kg. Also, in the data set on Mus musculus [1], the outcome was inactive. Moreover, the outcome with Mus musculus [2], in the data set on Mus musculus [11] and in the data set on Mus musculus [8] was Active. Further, the Activity entry in the data set with Mus musculus [4] was “Non-toxic”; with Mus musculus [5], “Toxic”. For the same compound, the ED50 with Mus musculus [12] is 40.6 mg/kg. Also, the “Ratio TD50/ED50” value with Mus musculus [13] is reported as 12.

As to `CC1(C)CC12NC(=O)N(CCNS(=O)(=O)c1ccc(F)cc1)C2=O` (racemic), the TD50 at 4 h in data set [10] amounted to 561 mg/kg. The outcome in the data set with Mus musculus [1] was inactive. Moreover, the result in the data set on Mus musculus [14], in the data set with Mus musculus [2] and in the data set on Mus musculus [11] was Active. The Activity entry in the data set with Mus musculus [4] and with Mus musculus [5] was “Non-toxic” in each case. For the same compound, the ED50 in the data set with Mus musculus [12] was found to be 28.1 mg/kg. Also, the “Ratio TD50/ED50” value in the data set on Mus musculus [13] is recorded as 20.

As to `CC1(C)CC12NC(=O)N(CCNS(=O)(=O)c1ccc([N+](=O)[O-])cc1)C2=O` (racemic), the outcome with Mus musculus [1], with Mus musculus [2] and in the data set on Mus musculus [6] was inactive. Moreover, the result in the data set with Mus musculus [3] was Active. Also, the Activity entry in the data set with Mus musculus [4] and in the data set on Mus musculus [5] was “Non-toxic” in each case.

In the case of `CC1(C)CC12NC(=O)N(CCNS(=O)(=O)c1cccc([N+](=O)[O-])c1)C2=O` (racemic), the result with Mus musculus [1], in the data set with Mus musculus [2] and in the data set on Mus musculus [6] was inactive. For the same compound, the outcome in the data set with Mus musculus [7] was Active. Further, the Activity result is listed as “Non-toxic” in the data set on Mus musculus [4] and “Toxic” with Mus musculus [5].

For `CC(C)c1cc(C(C)C)c(S(=O)(=O)NCCN2C(=O)NC3(CC3(C)C)C2=O)c(C(C)C)c1` (racemic), the result with Mus musculus [1] and in the data set on Mus musculus [2] was inactive. Further, the outcome in the data set on Mus musculus [7] and with Mus musculus [6] was Active. In addition, the Activity result with Mus musculus [4] and with Mus musculus [5] was “Non-toxic” throughout.

Turning to `CCOC(=O)C1(NC(=O)NCCNS(C)(=O)=O)CC1(C)C` (racemic), the outcome in the data set on Mus musculus [1], with Mus musculus [2], in the data set on Mus musculus [3] and in the data set on Mus musculus [6] was inactive. The Activity entry in the data set on Mus musculus [4] and with Mus musculus [5] was “Non-toxic” each time.

`CCCCS(=O)(=O)NCCNC(=O)NC1(C(=O)OCC)CC1(C)C` (racemic): the result with Mus musculus [1], in the data set on Mus musculus [2] and with Mus musculus [6] was inactive. Besides, the result in the data set on Mus musculus [7] was Active. Further, the Activity entry with Mus musculus [4] and in the data set with Mus musculus [5] was “Non-toxic” each time.

`CCOC(=O)C1(NC(=O)NCCNS(=O)(=O)N(C)C)CC1(C)C` (racemic): the outcome in the data set with Mus musculus [1], with Mus musculus [2], in the data set with Mus musculus [3] and in the data set on Mus musculus [6] was inactive. Also, the Activity result in the data set with Mus musculus [4] and in the data set on Mus musculus [5] was “Non-toxic” in each case.

For the compound `CCOC(=O)C1(NC(=O)NCCNS(=O)(=O)c2cccs2)CC1(C)C` (racemic), the outcome in the data set on Mus musculus [1], in the data set on Mus musculus [2] and in the data set on Mus musculus [6] was inactive. Also, in the data set on Mus musculus [3], the outcome was Active. Also, the results for the Activity result with Mus musculus [4] and in the data set on Mus musculus [5] were “Non-toxic” and “Toxic”, respectively.

Turning to `CCOC(=O)C1(NC(=O)NCCNS(=O)(=O)c2ccc(C)cc2)CC1(C)C` (racemic), the outcome in the data set on Mus musculus [1] and in the data set with Mus musculus [2] was inactive. Besides, the result with Mus musculus [7] and in the data set on Mus musculus [6] was Active. Further, the Activity entry in the data set on Mus musculus [4] and in the data set on Mus musculus [5] was “Non-toxic” throughout.

For the compound `CCOC(=O)C1(NC(=O)NCCNS(=O)(=O)c2ccc(F)cc2)CC1(C)C` (racemic), the result in the data set on Mus musculus [1] and with Mus musculus [2] was inactive. For the same compound, the outcome with Mus musculus [7] and in the data set on Mus musculus [8] was Active. The Activity entry in the data set on Mus musculus [4] and with Mus musculus [5] was “Non-toxic” throughout.

As for `CCOC(=O)C1(NC(=O)NCCNS(=O)(=O)c2ccc([N+](=O)[O-])cc2)CC1(C)C` (racemic), the outcome with Mus musculus [1], with Mus musculus [2], in the data set on Mus musculus [3] and with Mus musculus [6] was inactive. The Activity entry in the data set with Mus musculus [4] and in the data set with Mus musculus [5] was “Non-toxic” throughout.

In the case of `CCOC(=O)C1(NC(=O)NCCNS(=O)(=O)c2cccc([N+](=O)[O-])c2)CC1(C)C` (racemic), the outcome in the data set on Mus musculus [1], in the data set with Mus musculus [2], in the data set on Mus musculus [3] and with Mus musculus [6] was inactive. Also, the Activity entry with Mus musculus [4] and with Mus musculus [5] was “Non-toxic” throughout.

Regarding `CCOC(=O)C1(NC(=O)NCCNS(=O)(=O)c2c(C(C)C)cc(C(C)C)cc2C(C)C)CC1(C)C` (racemic), the result in the data set with Mus musculus [1], in the data set with Mus musculus [2] and in the data set on Mus musculus [6] was inactive. In addition, the outcome with Mus musculus [3] was Active. Also, the Activity entry with Mus musculus [4] and with Mus musculus [5] was “Non-toxic” each time.

In the case of `CCC1(C)CC(=O)NC1=O` (configuration not stated) [ETHOSUXIMIDE], the outcome in the data set on Mus musculus [1] and in the data set on Mus musculus [15] was Active. In addition, the outcome in the data set with Mus musculus [3] and with Mus musculus [6] was inactive. Also, the Activity result in the data set with Mus musculus [4] and in the data set with Mus musculus [5] was “Non-toxic” in each case.

For `O=C1NC(=O)C(c2ccccc2)(c2ccccc2)N1` [PHENYTOIN], the result in the data set with Mus musculus [1] and with Mus musculus [2] was inactive. Further, the Activity entry in the data set with Mus musculus [9] and in the data set with Mus musculus [16] was “Toxic” in each case. Besides, the result with Mus musculus [14] and in the data set on Mus musculus [11] was Active. Also, the ED50 with Mus musculus [12] was determined as 9.2 mg/kg.

What is called TD50 is the dose at which the toxic effect under study appears in half of the subjects. By ED50 is commonly meant the dose that gives a 50% effect, or the effect in half of the subjects.
